Consider 1 compound from PubChem BioAssay (NCI).

SMILES strings stand for the structures.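 1) Cells in 96-well plates. 2) Compound, 48 h, 5 concentrations. 3) Linear interpolation between surrounding doses. 4) Unreached endpoint = highest concentration. GI50 marks 50% less growth. TGI: concentration producing complete growth inhibition.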

Some test systems named below: ACHN renal; HOP-92 NSCLC; MDA-MB-231 breast; NCI-H23 lung; NCI/ADR-RES ovarian; OVCAR-5 ovarian; SK-MEL-5 melanoma; SN12C renal; SNB-19 CNS; TK-10 renal.
Common to all, as to assay: DTP human tumour cell line panel, 48 h

As to `NCCCNc1nc2ccccc2c2c(=O)c3cc(OC(F)(F)F)ccc3sc12`, the GI50 in the test on ACHN renal was 1.6 µM; with HOP-92 NSCLC, 1.08 µM; in the test with MDA-MB-231 breast, 1.26 µM; with NCI-H23 lung it was 1.62 µM; with NCI/ADR-RES ovarian it was 1.73 µM; in the test on OVCAR-5 ovarian, 1.64 µM. The GI50 in the test on SK-MEL-5 melanoma was 1.83 µM; in the test with SN12C renal, 1.66 µM; in the test with SNB-19 CNS it was 1.63 µM; in the test on TK-10 renal it was 2.14 µM. Also, the TGI in the test on ACHN renal was determined as 2.96 µM; in the test with HOP-92 NSCLC, 2.36 µM; in the test on MDA-MB-231 breast it was 2.6 µM; in the test on NCI-H23 lung it was 3.09 µM; with NCI/ADR-RES ovarian it was 3.41 µM; in the test with OVCAR-5 ovarian, 3.07 µM. Moreover, the TGI in the test with SK-MEL-5 melanoma was found to be 3.36 µM; in the test with SN12C renal it was 3.14 µM; in the test with SNB-19 CNS, 3.12 µM; in the test on TK-10 renal, 3.74 µM.
